Starred links: 1 amine or outer side, 2 acyl side, 3 side chain; linkers in the order of their positions; H or OH if unused. Positions of bridges follow the written chain, without caps; N, C: chain ends. Non-standard residues stand in square brackets, D forms with d. Residues, ends and D or L forms follow the SMILES beside them. ξ: configuration not given here. *: point of attachment. Phe(3-NO2) = N[C@@H](Cc1cccc([N+](=O)[O-])c1)C(=O)O; Gly(N-(CH2)3N-pyrrolidone) = O=C(O)CNCCCN1CCCC1=O; Phe(3,4-Cl2) = N[C@@H](Cc1ccc(Cl)c(Cl)c1)C(=O)O; Phe(4-F) = N[C@@H](Cc1ccc(F)cc1)C(=O)O; X10 = CCN(CC)[C@@H](Cc1ccccc1)C(=O)*; Bta = N[C@@H](Cc1csc2ccccc12)C(=O)O; cisHyp = O=C(O)[C@@H]1C[C@H](O)CN1; Hydrocinnamoyl = O=C(CCc1ccccc1)*; Hyp = O=C(O)[C@@H]1C[C@@H](O)CN1; d(hLeu) = CC(C)CC[C@@H](N)C(=O)O; ξNip = O=C(C1CCCN([*:1])C1)[*:2]; 2Thi = N[C@@H](Cc1cccs1)C(=O)O; Cit = NC(=O)NCCC[C@H](N)C(=O)O; dCha = N[C@H](CC1CCCCC1)C(=O)O; Chg = N[C@H](C(=O)O)C1CCCCC1; hLeu = CC(C)CC[C@H](N)C(=O)O; dNle = CCCC[C@@H](N)C(=O)O; Nle = CCCC[C@H](N)C(=O)O; Orn = NCCC[C@H](N)C(=O)O; Aze = O=C(O)[C@@H]1CCN1; Fluoroacetyl = O=C(CF)*; X16 = c1ccc(C*)nc1; X18 = c1cc(C*)ccn1; Ms = CS(=O)(=O)*

The first experiment has as its target T1, human C5aR(CD88) (Homo sapiens, UniProt P21730).
T1 construct: expressed in transfected cells; host or cells: rat basophilic leukemia cells (RBL)
T1 sequence (P21730 1-350): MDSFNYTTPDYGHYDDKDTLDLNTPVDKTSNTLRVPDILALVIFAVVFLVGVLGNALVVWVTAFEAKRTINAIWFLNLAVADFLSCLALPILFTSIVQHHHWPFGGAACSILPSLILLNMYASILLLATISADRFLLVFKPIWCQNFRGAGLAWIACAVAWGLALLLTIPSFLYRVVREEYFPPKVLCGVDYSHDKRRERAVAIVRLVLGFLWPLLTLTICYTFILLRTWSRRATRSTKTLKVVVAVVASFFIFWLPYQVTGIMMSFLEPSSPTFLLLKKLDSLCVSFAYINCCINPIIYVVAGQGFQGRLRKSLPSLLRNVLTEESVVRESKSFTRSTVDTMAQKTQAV
Put plainly: Determination of the IC50 value in an enzyme release assay (functional assay, antagonistic activity). It is filed as cell-based. The conditions noted are these: activity (group), antagonistic activity; IC50 group in enzyme release assay, RBL cells expressing human C5aR(CD88).
In turn, `NCCC[C@H](NC(=O)[C@H](Cc1ccccc1)NC(=O)CF)C(=O)N1CC[C@H]1C(=O)N[C@H](CC1CCCCC1)C(=O)N[C@@H](Cc1csc2ccccc12)C(=O)N[C@@H](Cc1ccccc1)C(N)=O` [Compound 321, FAc-Phe-Orn-Aze-cha-Bta-Phe-NH2] (Fluoroacetyl-F[Orn][Aze][dCha][Bta]F-NH2) showed an IC50 of 20 to 50 nM.

The same experiment, now with this note: antagonistic activity; IC50 group in enzyme release assay, RBL cells expressing human C5aR(CD88); read-out: activity (group).
Turning to `CC(=O)N[C@@H](CCCNC(=N)N)C(=O)N[C@@H](Cc1ccccc1)C(=O)N[C@@H](CCCN)C(=O)N1CC[C@H]1C(=O)N[C@H](CC1CCCCC1)C(=O)N[C@@H](Cc1csc2ccccc12)C(=O)N[C@@H](Cc1ccccc1)C(N)=O` [Compound 137, Ac-Arg-Phe-Orn-Aze-cha-Bta-Phe-NH2] (Ac-RF[Orn][Aze][dCha][Bta]F-NH2), the IC50 fell in the range of 20 to 50 nM.
Regarding `CC(=O)N[C@@H](Cc1ccccc1)C(=O)N[C@@H](CCCN)C(=O)N1CCC[C@H]1C(=O)N[C@H](CCC(C)C)C(=O)N[C@@H](Cc1ccc(Cl)c(Cl)c1)C(=O)N[C@@H](Cc1ccccc1)C(N)=O` [Compound 284, Ac-Phe-Orn-Pro-hle-Eaa-Phe-NH2] (Ac-F[Orn]P[d(hLeu)][Phe(3,4-Cl2)]F-NH2), the IC50 lay in the range of 50 to 200 nM.
As to `CCCC[C@@H]1NC(=O)[C@H](Cc2ccc(Cl)c(Cl)c2)NC(=O)[C@@H](CCC(C)C)NC(=O)[C@H](CO)NC(=O)[C@@H](NC(=O)[C@@H](N)Cc2ccccc2)CCCNC1=O` [Compound 384, H-Phe-[Orn-Ser-hle-Eaa-Nle]] (H-F[Orn]S[d(hLeu)][Phe(3,4-Cl2)][Nle]; lactam 2-C), the IC50 fell in the range of 50 to 200 nM.
On to `CCCC[C@@H]1NC(=O)[C@H](Cc2c[nH]c3ccccc23)NC(=O)[C@@H](CC2CCCCC2)NC(=O)[C@@H]2C[C@@H](O)CN2C(=O)[C@@H](NC(=O)CCc2ccccc2)CCCNC1=O` [Compound 145, 3PP-[Orn-Hyp-cha-Trp-Nle]] (Hydrocinnamoyl-[Orn][Hyp][dCha]W[Nle]; lactam 1-C), for which the IC50 lay in the range of 20 to 50 nM.
On to `CC(=O)N[C@@H](Cc1ccccc1)C(=O)N[C@@H](CCCN)C(=O)N(CCCN1CCCC1=O)CC(=O)N[C@H](CC1CCCCC1)C(=O)N[C@@H](Cc1csc2ccccc12)C(=O)N[C@@H](Cc1ccccc1)C(N)=O` [Compound 241, Ac-Phe-Orn-G30-cha-Bta-Phe-NH2] (Ac-F[Orn][Gly(N-(CH2)3N-pyrrolidone)][dCha][Bta]F-NH2), for which the IC50 lay within 50 to 200 nM.
`CCCC[C@@H]1NC(=O)[C@H](Cc2c[nH]c3ccccc23)NC(=O)[C@@H](CCC(C)C)NC(=O)[C@H](CO)NC(=O)[C@@H](NC(=O)[C@H](Cc2ccccc2)N(CC)CC)CCCNC1=O` [Compound 317, Def-[Orn-Ser-hle-Trp-Nle]] (X10-[Orn]S[d(hLeu)]W[Nle]; lactam 1-C): the IC50 is 50 to 200 nM.
For `O=C(N[C@@H](Cc1ccccc1)C(=O)N[C@H]1CCCNC(=O)[C@H](Cc2ccccc2)NC(=O)[C@H](Cc2c[nH]c3ccccc23)NC(=O)[C@@H](CC2CCCCC2)NC(=O)[C@@H]2C[C@@H](O)CN2C1=O)C1CCCNC1` (stereo partly drawn) [Compound 332, Fci-[Phe-Orn-Hyp-cha-Trp-Phe]] (ξNip-F[Orn][Hyp][dCha]WF; lactam 2-C), the IC50 lay in the range of 50 to 200 nM.
Consider `CCCC[C@@H]1NC(=O)[C@H](Cc2c[nH]c3ccccc23)NC(=O)[C@@H](CC2CCCCC2)NC(=O)[C@H]([C@@H](C)O)NC(=O)[C@@H](NC(=O)[C@H](Cc2ccccc2)NC(C)=O)CCCNC1=O` [Compound 203, Ac-Phe-[Orn-Thr-cha-Trp-Nle]] (Ac-F[Orn]T[dCha]W[Nle]; lactam 2-C), for which the IC50 lay in the range of 50 to 200 nM.
On to `CC(=O)N[C@@H](Cc1ccccc1)C(=O)N[C@H]1CCCNC(=O)[C@H](CSCc2ccncc2)NC(=O)[C@H](Cc2c[nH]c3ccccc23)NC(=O)[C@@H](CC2CCCCC2)NC(=O)[C@@H]2CCCN2C1=O` [compound 15] (Ac-F[Orn]P[dCha]WC(X18); lactam 2-C), for which the IC50 is 200 to 2000 nM.
As for `CCCC[C@@H]1NC(=O)[C@H](Cc2c[nH]c3ccccc23)NC(=O)[C@@H](CCC(C)C)NC(=O)[C@H](CO)NC(=O)[C@@H](NC(=O)[C@H](Cc2ccccc2)NC(C)=O)CCCNC1=O` [Compound 202, Ac-Phe-[Orn-Ser-hle-Trp-Nle]] (Ac-F[Orn]S[d(hLeu)]W[Nle]; lactam 2-C), the IC50 lay in the range of 50 to 200 nM.
Regarding `CCCC[C@@H]1NC(=O)[C@H](Cc2ccc(F)cc2)NC(=O)[C@@H](CCC(C)C)NC(=O)[C@@H]2C[C@@H](O)CN2C(=O)[C@@H](NC(=O)[C@@H](N)Cc2ccccc2)CCCNC1=O` [Compound 365, H-Phe-[Orn-Hyp-hle-Pff-Nle]] (H-F[Orn][Hyp][d(hLeu)][Phe(4-F)][Nle]; lactam 2-C), the IC50 was in the range of 50 to 200 nM.
`CC(C)CC[C@H]1NC(=O)[C@@H]2C[C@@H](O)CN2C(=O)[C@@H](NC(=O)[C@@H](N)Cc2ccccc2)CCCNC(=O)[C@H](C2CCCCC2)NC(=O)[C@H](Cc2ccc(F)cc2)NC1=O` [Compound 362, H-Phe-[Orn-Hyp-hle-Pff-Chg]] (H-F[Orn][Hyp][d(hLeu)][Phe(4-F)][Chg]; lactam 2-C): the IC50 is 50 to 200 nM.
On the same count and under the same terms, as for `CC(C)CC[C@@H]1NC(=O)[C@H](Cc2ccc(F)cc2)NC(=O)[C@@H](CCC(C)C)NC(=O)[C@@H]2C[C@@H](O)CN2C(=O)[C@@H](NC(=O)[C@@H](N)Cc2ccccc2)CCCNC1=O` [Compound 363, H-Phe-[Orn-Hyp-hle-Pff-Hle]] (H-F[Orn][Hyp][d(hLeu)][Phe(4-F)][hLeu]; lactam 2-C), the figure is 50 to 200 nM; as for `CC(=O)N[C@@H](Cc1ccccc1)C(=O)N[C@@H](CCCN)C(=O)N1CCC[C@H]1C(=O)N[C@H](CCC(C)C)C(=O)N[C@@H](Cc1ccc(F)cc1)C(=O)N[C@@H](Cc1ccc(Cl)c(Cl)c1)C(N)=O` [Compound 299, Ac-Phe-Orn-Pro-hle-Pff-Eaa-NH2] (Ac-F[Orn]P[d(hLeu)][Phe(4-F)][Phe(3,4-Cl2)]-NH2), 50 to 200 nM.
With `CC(=O)N[C@@H](Cc1ccccc1)C(=O)N[C@@H](CCCN)C(=O)N1CCC[C@H]1C(=O)N[C@H](CCC(C)C)C(=O)N[C@@H](Cc1cccc([N+](=O)[O-])c1)C(=O)N[C@@H](Cc1ccccc1)C(N)=O` [Compound 287, Ac-Phe-Orn-Pro-hle-Egz-Phe-NH2] (Ac-F[Orn]P[d(hLeu)][Phe(3-NO2)]F-NH2), the IC50 was 50 to 200 nM.
With `CC[C@@H](C)[C@@H](NC(=O)[C@@H]1CCCN1C(=O)[C@H](CCCN)NC(=O)[C@H](Cc1ccccc1)NC(C)=O)C(=O)N[C@@H](Cc1c[nH]c2ccccc12)C(=O)N[C@@H](Cc1ccccc1)C(N)=O` [Compound 307, Ac-Phe-Orn-Pro-ile-Trp-Phe-NH2] (Ac-F[Orn]P[dI]WF-NH2), the IC50 was 5 to 10 nM.
For `CC(=O)N[C@@H](Cc1cccs1)C(=O)N[C@@H](CCCN)C(=O)N1CCC[C@H]1C(=O)N[C@H](CC1CCCCC1)C(=O)N[C@@H](Cc1csc2ccccc12)C(=O)N[C@@H](Cc1cccs1)C(N)=O` [Compound 313, Ac-Thi-Orn-Pro-cha-Bta-Thi-NH2] (Ac-[2Thi][Orn]P[dCha][Bta][2Thi]-NH2), the IC50 was in the range of 20 to 50 nM.
Still for that read-out and setting: the value for `CCCC[C@H]1NC(=O)[C@H](Cc2c[nH]c3ccccc23)NC(=O)[C@@H](CC2CCCCC2)NC(=O)[C@@H]2CCCN2C(=O)[C@@H](NC(=O)[C@H](Cc2ccccc2)NC(C)=O)CCCNC1=O` [Compound 194, Ac-Phe-[Orn-Pro-cha-Trp-nle]] (Ac-F[Orn]P[dCha]W[dNle]; lactam 2-C) was 50 to 200 nM.
On to `CC(=O)N[C@@H](Cc1ccccc1)C(=O)N[C@@H](CCCNS(C)(=O)=O)C(=O)N1CCC[C@H]1C(=O)N[C@H](CC1CCCCC1)C(=O)N[C@@H](Cc1csc2ccccc12)C(=O)N[C@@H](Cc1ccccc1)C(N)=O` [Compound 227, Ac-Phe-G23-Pro-cha-Bta-Phe-NH2] (Ac-F[Orn](Ms)P[dCha][Bta]F-NH2), for which the IC50 is 50 to 200 nM.
For `CC(=O)N[C@@H](Cc1ccccc1)C(=O)N[C@@H](CCCN)C(=O)N1C[C@@H](O)C[C@H]1C(=O)N[C@H](CCC(C)C)C(=O)N[C@@H](Cc1ccc(F)cc1)C(=O)N[C@@H](Cc1ccccc1)C(N)=O` [Compound 236, Ac-Phe-Orn-Chy-hle-Pff-Phe-NH2] (Ac-F[Orn][cisHyp][d(hLeu)][Phe(4-F)]F-NH2), the IC50 was in the range of 50 to 200 nM.
On the same count and under the same terms, the value for `CC(=O)N[C@@H](Cc1ccccc1)C(=O)N[C@H]1CCCNC(=O)[C@H](CCCNC(N)=O)NC(=O)[C@H](Cc2c[nH]c3ccccc23)NC(=O)[C@@H](CC2CCCCC2)NC(=O)[C@@H]2CCCN2C1=O` [Compound 10, Ac-Phe-[Orn-Pro-cha-Trp-Cit], reference compound] was 200 to 2000 nM.
Consider `CC(C)CC[C@@H](NC(=O)[C@@H]1CCCN1C(=O)[C@H](CCCNC(N)=O)NC(=O)[C@H](Cc1ccccc1)NC(=O)C1CCCNC1)C(=O)N[C@@H](Cc1csc2ccccc12)C(=O)N[C@@H](Cc1ccccc1)C(N)=O` (stereo partly drawn) [Compound 346, H-Nip-Phe-Cit-Pro-hle-Bta-Phe-NH2] (ξNip-F[Cit]P[d(hLeu)][Bta]F-NH2), for which the IC50 lay within 50 to 200 nM.
As to `CC(=O)N[C@@H](Cc1cccs1)C(=O)N[C@@H](CCCN)C(=O)N1CCC[C@H]1C(=O)N[C@H](CC1CCCCC1)C(=O)N[C@@H](Cc1c[nH]c2ccccc12)C(=O)N[C@@H](Cc1ccccc1)C(N)=O` [Compound 77, Ac-Thi-Orn-Pro-cha-Trp-Phe-NH2] (Ac-[2Thi][Orn]P[dCha]WF-NH2), the IC50 lay within 50 to 200 nM.
`CC(=O)N[C@@H](Cc1ccccc1)C(=O)N[C@H]1CCCNC(=O)[C@H](CSCc2ccccn2)NC(=O)[C@H](Cc2c[nH]c3ccccc23)NC(=O)[C@@H](CC2CCCCC2)NC(=O)[C@@H]2CCCN2C1=O` [compound 18] (Ac-F[Orn]P[dCha]WC(X16); lactam 2-C): the IC50 was 200 to 2000 nM.

For the origin of these results see patent US20080161232A1, “C5a Receptor Antagonist” (JERINI AG, priority 2005, published 2008).
